These are literature values, as cited in patent US20240100117A1, “NUTRITION-BASED METHOD FOR MANAGING ANIMAL BEHAVIOR” (Morgenstern & Associates, LLC, priority 2022, published 2024).

For data set [1] the following is noted: general reference values; at room temperature.
For data set [2], the system named is conversion of 5-HTP to serotonin. The note with it: supplementation, primate animal models.

On to `OCC(O)CO` [glycerin], for which the viscosity entry in data set [1] was “about 950 cP”. Take `Cc1ncc(CO)c(CO)c1O` [vitamin B6, pyridoxine]: the “conversion of 5-HTP to serotonin” value in data set [2] is on record as “increased the conversion of 5-HTP to serotonin”. For `O` [water], in data set [1], the viscosity result is “about 1 cP”.
